Measured values from ChEMBL document CHEMBL3352341, “Design, synthesis and biological characterization of thiazolidin-4-one derivatives as promising inhibitors of Toxoplasma gondii” (Eur J Med Chem, 2014).
pIC50: −log10 of the molar value. Calls of active or inactive are those of the source. The rule behind the calls is not given here.

Legend:
[1] = tested on: Toxoplasma gondii; test: Antiparasitic activity against Toxoplasma gondii infected in human foreskin fibroblasts assessed as tachyzoite growth inhibition after 5 days by colorimetric assay; type: functional, organism-based; details: 120 h
[2] = Cytotoxicity against human foreskin fibroblasts after 5 days by colorimetric assay; type: cell-based; details: human foreskin fibroblasts (HFF cells), read-out: TD50
[3] = tested on: Toxoplasma gondii; test: Antiparasitic activity against Toxoplasma gondii infected in human foreskin fibroblasts assessed as inhibition of replication measured as decrease in the number of tachyzoites in vacuole at 10 uM after 24 hrs by fluorescence assay; type: functional, organism-based
[4] = Therapeutic index, ratio of TD50 for human foreskin fibroblasts to IC50 for Toxoplasma gondii infected in human foreskin fibroblasts; details: read-out: TI

Structure (SMILES)	pIC50 [1]	IC90 [1] [µM]	CC50 at 120 h [2] [µM]	inhibition [3]	selectivity ratio [4]
CC1CCC(=N/N=C2\NC(=O)CS2)CC1 (configuration not stated)	3.65	777	≥ 320	Active	2
CCC/C(C)=N\N=C1/NC(=O)CS1	3.58	1060	≥ 320	Active	2
C/C(=N/N=C1/SCC(=O)N1Cc1ccccc1)c1cc2ccccc2oc1=O	≤ 3.49		≥ 320	Active	
CC1CCC/C(=N/N=C2\NC(=O)CS2)C1 (configuration not stated)	4.44	310	202	Active	6
CCCCC/C(C)=N\N=C1/NC(=O)CS1	3.96	686	320	Active	3
CC/C(C)=N\N=C1\SCC(=O)N1Cc1ccccc1	4.00	392	≥ 320	Active	6
CCC/C(C)=N\N=C1\SCC(=O)N1Cc1ccccc1	4.33	214	≥ 320	Active	12
C/C(=N/N=C1\NC(=O)CS1)C1CCCCC1	4.26	283	≥ 320	Active	10
O=C1CS/C(=N/N=C2CCCC2)N1Cc1ccccc1	3.98	330	≥ 320	Active	5
O=C1CS/C(=N/N=C\c2c[nH]c3ccccc23)N1Cc1ccccc1	4.28	177	102	Active	2
O=C1CSC(NN=C2CCCCCC2)=N1	3.95	387	≥ 320	Active	5
CC(C)(C)C1CCCC/C1=N/N=C1/SCC(=O)N1Cc1ccccc1 (configuration not stated)	3.99	295	≥ 320	Active	6
C/C(=N/N=C1\NC(=O)CS1)c1ccccn1	5.54	7	16	Active	6
C/C(=N/N=C1/SCC(=O)N1Cc1ccccc1)c1ccc2ccccc2c1	3.96	499	≥ 320	Active	5
C/C(CC(C)C)=N/N=C1/SCC(=O)N1Cc1ccccc1	4.64	188	220	Active	10
CC1CCCC/C1=N/N=C1/SCC(=O)N1Cc1ccccc1 (configuration not stated)	4.37	171	≥ 320	Active	13
CC1CCC(=N/N=C2/SCC(=O)N2Cc2ccccc2)CC1 (configuration not stated)	4.06	242	286	Active	3
CC(C)=C/C(C)=N\N=C1/NC(=O)CS1	4.01	316	≥ 320	Active	6
CC(C)=C/C(C)=N\N=C1\SCC(=O)N1Cc1ccccc1	4.64	186	67	Active	3
C/C(=N/N=C1\NC(=O)CS1)c1ccco1	≤ 3.49		≥ 320	Active	
O=C1CS/C(=N/N=C\c2ccc3c(c2)OCO3)N1	≤ 3.49		≥ 320	Active	
C/C(=N/N=C1/SCC(=O)N1Cc1ccccc1)c1ccccn1	≤ 3.49		≥ 320	Active	
